Test results from patent publication US20050282824A1, “Substituted pyrimidines as inhibitors of bacterial type III protein secretion systems” (priority 2004, published 2005).

Experiments:
Type in all cases: cell-based
[1] = tested on: Type III protein secretion of ExoU by P. aeruginosa PA103; assay: Tertiary assay: Type III-dependent secretion of ExoU by P. aeruginosa PA103; conditions: Pseudomonas aeruginosa, read-out: ExoU IC50(uM)
In short: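 PA103 grown in deferrated medium with nitrilotriacetic acid to induce Type III secretion, with or without inhibitor, over a prolonged growth period. Supernatant proteins concentrated by ammonium sulfate precipitation, separated by SDS-PAGE, Colloidal Blue-stained; 73.9 kDa ExoU band quantified by imaging relative to untreated controls.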

[2] = tested on: SPI1 type III protein secretion of SipB by S. enterica; assay: Secondary assay: Type III-dependent protein secretion of the SipB polypeptide by S. enterica; conditions: Salmonella enterica, read-out: SipB IC50(uM)
Protocol: Secondary assay: Type III-dependent protein secretion of the SipB polypeptide by S. enterica. The SipB protein of S. enterica is another effector of the SPI1 type III protein secretion system from S. enterica. In this cell-based procedure, the Type III-dependent secretion of SipB from the bacterial cytoplasm to the extracellular medium was measured through its reactivity with a cognate mouse monoclonal.
Salmonella enterica cells growing either in the presence or in the absence of inhibitors are induced for the production of SipB. Following an established period of growth the cells are sedimented and the amount of SipB present in the supernatant is quantified with a scanning imager following application of immunoblot techniques. Detection may employ an anti-SipB mouse monoclonal antibody (e.g., obtained from Jorge Galan, SUNY at Stony Brook, N.Y.) followed by treatment with commercially available sheep anti-mouse polyclonal antibody conjugated with horseradish peroxidase. Thereafter the membrane is treated with a peroxidase chemiluminescent substrate and exposed to film for an appropriate exposure time. Inhibition may be measured relative to untreated controls.

[3] = tested on: SPI1 type III protein secretion of SopE'-'Bla by Salmonella enterica; assay: Primary assay: Type III protein secretion of the chimeric SopE'-'Bla polypeptide by Salmonella enterica; conditions: read-out: SopE IC50(uM)
In short: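 S. enterica grown under SPI1-favouring conditions was induced to express SopE′-′Bla (SopE secretion signal fused to signal-less TEM-1 β-lactamase) and cultured with or without compound for a set time. Secreted reporter was quantified by colorimetric hydrolysis of cell-impermeant nitrocefin added to the cultures.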

Compound | IC50 [1] | IC50 [2] | IC50 [3]
O=C(N[C@@H](CSCc1ccccc1)C(=O)O)c1cc(N2CCN(c3ccccc3)CC2)nc(Cl)n1 [Compound 26, (R)-3-Benzylsulfanyl-2-{[2-chloro-6-(4-phenyl-piperazin-1-yl)pyrimidine-4-carbonyl]amino}propionic acid] | > 100 µM | 46.8 µM | 50.1 µM
CC1CCN(c2nc(C(=O)N[C@@H](CSCc3ccccc3)C(=O)O)cc(N3CCN(c4ccccc4)CC3)n2)CC1 [Compound 27, (R)-3-Benzylsulfanyl-2-{[2-(4-methylpiperidin-1-yl)-6-(4-phenyl-piperazin-1-yl)-pyrimidine-4-carbonyl]amino}propionic acid] | > 100 µM | 8.8 µM | 5.3 µM
C[C@@H](OCc1ccccc1)[C@H](NC(=O)c1cc(N2CCCCC2)nc(N2CCC(c3ccccc3)CC2)n1)C(=O)O [Compound 30, (2S,3R)-3-Benzyloxy-2-{[2-(4-phenylpiperidin-1-yl)-6-piperidin-1-yl-pyrimidine-4-carbonyl]amino}butyric acid] | > 100 µM | 17.9 µM | 4.6 µM
O=C(N[C@@H](COCc1ccccc1)C(=O)O)c1cc(-c2ccc(Cl)c(Cl)c2)nc(N2CCN(c3ccccc3)CC2)n1 [Compound 32, (S)-3-Benzyloxy-2-{[6-(3,4-dichlorophenyl)-2-(4-phenyl-piperazin-1-yl)-pyrimidine-4-carbonyl]amino}propionic acid] | 40.7 µM | 5.7 µM | 3.2 µM
Cc1cc(C(=O)NC(CSCc2ccccc2)C(=O)O)nc(-c2ccc(-c3ccccc3)cc2)n1 (stereo not drawn) [Compound 35, 3-Benzylsulfanyl-2-[(2-biphenyl-4-yl-6-methyl-pyrimidine-4-carbonyl)-amino]-propionic acid] | > 100 µM | 59.2 µM | 17.7 µM
Cc1cc(C(=O)N[C@@H](COCc2ccccc2)C(=O)O)nc(-c2ccc(-c3ccccc3)cc2)n1 [Compound 36, (S)-3-Benzyloxy-2-[(2-biphenyl-4-yl-6-methyl-pyrimidine-4-carbonyl)amino]-propionic acid] | > 100 µM | 79.6 µM | 32.7 µM
CC1CCN(c2cc(C(=O)N[C@@H](COCc3ccccc3)C(=O)O)nc(-c3ccc(Oc4ccccc4)cc3)n2)CC1 [Compound 38, (S)-3-Benzyloxy-2-{[6-(4-methylpiperidin-1-yl)-2-(4-phenoxyphenyl)pyrimidine-4-carbonyl]amino}propionic acid] | 82.8 µM | 7.1 µM | 1.3 µM
CC1CCN(c2cc(C(=O)NC(Cc3ccc(Cl)cc3)C(=O)O)nc(-c3ccc(Oc4ccccc4)cc3)n2)CC1 (stereo not drawn) [Compound 39, 3-(4-Chlorophenyl)-2-{[6-(4-methylpiperidin-1-yl)-2-(4-phenoxyphenyl)-pyrimidine-4-carbonyl]amino}propionic acid] | 74.5 µM | 13.2 µM | 1.5 µM
CC1CCN(c2cc(C(=O)N[C@@H](CSCc3ccccc3)C(=O)O)nc(-c3ccc(-c4ccccc4)cc3)n2)CC1 [Compound 40, (R)-3-Benzylsulfanyl-2-{[2-biphenyl-4-yl-6-(4-methylpiperidin-1-yl)pyrimidine-4-carbonyl]amino}propionic acid] | 61.2 µM | 23 µM | 5.1 µM
CC1CCN(c2cc(C(=O)N[C@@H](COCc3ccccc3)C(=O)O)nc(-c3ccc(-c4ccccc4)cc3)n2)CC1 [Compound 41, (S)-3-Benzyloxy-2-{[2-biphenyl-4-yl-6-(4-methylpiperidin-1-yl)pyrimidine-4-carbonyl]amino}propionic acid] | 67.4 µM | 28.6 µM | 2.4 µM
CC1CCN(c2cc(C(=O)NC(Cc3ccc(Cl)cc3)C(=O)O)nc(-c3ccc(-c4ccccc4)cc3)n2)CC1 (stereo not drawn) [Compound 42, 2-{[2-Biphenyl-4-yl-6-(4-methylpiperidin-1-yl)pyrimidine-4-carbonyl]amino}-3-(4-chlorophenyl)propionic acid] | > 100 µM | 22.3 µM | 4.8 µM
O=C(NC(Cc1ccc(Cl)cc1)C(=O)O)c1cc(-c2ccc(C(F)(F)F)cc2)nc(N2CCN(c3ccccn3)CC2)n1 (stereo not drawn) [Compound 43, 3-(4-Chlorophenyl)-2-{[2-(4-pyridin-2-yl-piperazin-1-yl)-6-(4-trifluoromethyl-phenyl)pyrimidine-4-carbonyl]amino}propionic acid] | > 100 µM | 74.2 µM | 8.1 µM
CC1CCN(c2nc(C(=O)N[C@@H](COCc3ccccc3)C(=O)O)cc(N3CCN(c4nccc(C(F)(F)F)n4)CC3)n2)CC1 [Compound 47, (S)-3-Benzyloxy-2-({2-(4-methylpiperidin-1-yl)-6-[4-(4-trifluoromethylpyrimidin-2-yl)piperazin-1-yl]pyrimidine-4-carbonyl}amino)propionic acid] | > 100 µM | 10.4 µM | 4.5 µM
CC1CCN(c2nc(C(=O)NC(Cc3ccc(Cl)cc3)C(=O)O)cc(N3CCN(c4nccc(C(F)(F)F)n4)CC3)n2)CC1 (stereo not drawn) [Compound 48, 3-(4-Chlorophenyl)-2-({2-(4-methylpiperidin-1-yl)-6-[4-(4-trifluoromethyl-pyrimidin-yl)piperazin-1-yl]pyrimidine-4-carbonyl}amino)propionic acid] | > 100 µM | 40 µM | 1.3 µM
CN(C)c1ccc(-c2nc(C(=O)N[C@@H](COCc3ccccc3)C(=O)O)cc(N3CCN(c4nccc(C(F)(F)F)n4)CC3)n2)cc1 [Compound 49, (S)-3-Benzyloxy-2-({2-(4-dimethylaminophenyl)-6-[4-(4-trifluoromethylpyrimidin-2-yl)piperazin-1-yl]pyrimidine-4-carbonyl}amino)propionic acid] | 92.6 µM | 7.2 µM | 5.9 µM
O=C(N[C@@H](COCc1ccccc1)C(=O)O)c1cc(N2CCN(c3nccc(C(F)(F)F)n3)CC2)nc(-c2ccc([N+](=O)[O-])cc2)n1 [Compound 51, (S)-3-Benzyloxy-2-({2-(4-nitrophenyl)-6-[4-(4-trifluoromethylpyrimidin-2-yl)-piperazin-1-yl]pyrimidine-4-carbonyl}amino)propionic acid] | 55 µM | 84.5 µM | 1.9 µM
O=C(NC(Cc1ccc(Cl)cc1)C(=O)O)c1cc(N2CCN(c3nccc(C(F)(F)F)n3)CC2)nc(-c2ccc([N+](=O)[O-])cc2)n1 (stereo not drawn) [Compound 53, 3-(4-Chlorophenyl)-2-({2-(4-nitrophenyl)-6-[4-(4-trifluoromethylpyrimidin-2-yl)-piperazin-1-yl]pyrimidine-4-carbonyl}amino)propionic acid] | 40.4 µM | 84.6 µM | 1.2 µM
O=C(NC(Cc1ccc(Cl)cc1)C(=O)O)c1cc(N2CCN(c3nccc(C(F)(F)F)n3)CC2)nc(-c2ccc(F)cc2)n1 (stereo not drawn) [Compound 56, 3-(4-Chlorophenyl)-2-({2-(4-fluorophenyl)-6-[4-(4-trifluoromethylpyrimidin-2-yl)-piperazin-1-yl]pyrimidine-4-carbonyl}amino)propionic acid] | 55.4 µM | 4.5 µM | 2.2 µM
O=C(N[C@@H](COCc1ccccc1)C(=O)O)c1cc(N2CCN(c3nccc(C(F)(F)F)n3)CC2)nc(-c2ccoc2)n1 [Compound 60, (S)-3-Benzyloxy-2-({2-furan-3-yl-6-[4-(4-trifluoromethylpyrimidin-2-yl)piperazin-1yl]-pyrimidine-4-carbonyl}amino)propionic acid] | > 100 µM | 15.6 µM | 16.4 µM
O=C(N[C@@H](CSCc1ccccc1)C(=O)O)c1cc(N2CCN(c3nccc(C(F)(F)F)n3)CC2)nc(-c2ccoc2)n1 [Compound 61, (R)-3-Benzylsulfanyl-2-({2-furan-3-yl-6-[4-(4-trifluoromethylpyrimidin-2-yl)-piperazin-1-yl]pyrimidine-4-carbonyl}amino)propionic acid] | > 100 µM | 43.2 µM | 10.2 µM
